From patent US20230159510A1, “NOVEL PRMT5 INHIBITORS” (AMGEN INC., priority 2020, published 2023)

Tests used:
[1] = test system: HCT116 WT cells; assay: HCT116 proliferation assay, WT cells (CellTiter-Glo, 6 days); assay type: cell-based; conditions: Homo sapiens, HCT-116, 144 h, read-out: Prolif_HCT116-WT IC50
In short: (§1)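 Luminescent viability signal was measured after continuous drug exposure. Before dosing, cells attached overnight (37° C, 5% CO2) in RPMI 1640 + 10% FBS. Dosing used 1:3 steps over 8 or 9 points, starting at 1 or 10 µM, with DMSO-only wells as control.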

[2] = test system: HCT116 MTAP null cells; assay: HCT116 proliferation assay, MTAP null cells (CellTiter-Glo, 6 days); assay type: cell-based; conditions: HCT116-MTAP null, 144 h, read-out: Protif_ HCT116-MTAP null IC50
In short: as §1

[3] = biological target: PRMT5/MEP50 (Homo sapiens, UniProt O14744); assay: MTase-Glo methyl transferase assay, Method B (FL-Histone H2A, 1 µM MTA, 1 h pre-incubation); assay type: biochemical; parameters: purchased Reaction Biology Corp RD-11-292; conditions: read-out: PRMT5 MTase Glo Ki (nM, Meth. B)
Chain of PRMT5/MEP50 (O14744 2-637 limits assumed): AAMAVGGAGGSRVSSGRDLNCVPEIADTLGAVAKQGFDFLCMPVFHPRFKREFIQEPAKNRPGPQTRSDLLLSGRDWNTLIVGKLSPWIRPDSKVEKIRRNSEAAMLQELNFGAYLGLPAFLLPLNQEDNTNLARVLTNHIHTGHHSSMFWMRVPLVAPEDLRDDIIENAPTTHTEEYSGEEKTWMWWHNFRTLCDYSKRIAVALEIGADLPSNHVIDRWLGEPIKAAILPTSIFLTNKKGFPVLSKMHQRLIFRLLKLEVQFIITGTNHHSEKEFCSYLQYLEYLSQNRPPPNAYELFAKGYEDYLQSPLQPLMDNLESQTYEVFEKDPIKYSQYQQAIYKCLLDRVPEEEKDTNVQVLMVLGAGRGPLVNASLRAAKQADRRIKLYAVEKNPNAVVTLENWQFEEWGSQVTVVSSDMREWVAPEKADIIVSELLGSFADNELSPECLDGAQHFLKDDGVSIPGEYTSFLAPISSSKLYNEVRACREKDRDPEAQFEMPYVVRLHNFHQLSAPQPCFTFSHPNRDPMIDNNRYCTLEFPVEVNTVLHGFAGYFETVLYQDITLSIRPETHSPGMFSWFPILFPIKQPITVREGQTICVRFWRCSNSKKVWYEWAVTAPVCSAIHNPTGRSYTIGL
Chain of PRMT5/MEP50 (Q9BQA1 2-342 partner limits assumed): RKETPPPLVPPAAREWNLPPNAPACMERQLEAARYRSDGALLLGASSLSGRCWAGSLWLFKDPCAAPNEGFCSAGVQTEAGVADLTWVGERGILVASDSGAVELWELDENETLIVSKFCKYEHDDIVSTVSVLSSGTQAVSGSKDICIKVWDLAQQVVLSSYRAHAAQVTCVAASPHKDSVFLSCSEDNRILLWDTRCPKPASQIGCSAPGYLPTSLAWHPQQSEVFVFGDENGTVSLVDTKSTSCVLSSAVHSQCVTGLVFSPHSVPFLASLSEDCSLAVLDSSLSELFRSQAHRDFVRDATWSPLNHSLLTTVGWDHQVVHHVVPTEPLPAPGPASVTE
In short: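 PRMT5/MEP50 (4 nM) was pre-incubated 1 h with compound, 5 µM SAM and 1 µM MTA, then started with 2.5 µM FL-Histone H2A in Tris pH 8.0 buffer. After 20 h at room temperature, SAH was detected by MTase-Glo luminescence, and IC50/KI were fitted from dose-response curves.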

Compound | IC50 [1] [nM] | IC50 [2] [nM] | Ki [3] [nM]
Cc1cc2cc(C(=O)N(Cc3ccc(C(F)(F)F)cn3)C3CCCC(O)C3)ccc2nc1N (stereo not drawn) [Example 612, 2-amino-N-(3-hydroxycyclohexyl)-3-methyl-N-((5-(trifluoromethyl)pyridin-2-yl)methyl)quinoline-6-carboxamide] | > 1000 | 340 | 7.56
Cc1cc2cc(C(=O)N(Cc3cnc4[nH]ccc4c3)Cc3ccc(C(F)(F)F)cn3)ccc2nc1N [Example 598, 2-amino-3-methyl-N-(1H-pyrrolo [2,3-b]pyridin-5-ylmethyl)-N-[[5-(trifluoromethyl)-2-pyridyl]methyl]quinoline-6-carboxamide] | > 1000 | 180 | 2.44
COC(CN(Cc1ccc(C(F)(F)F)cn1)C(=O)c1ccc2nc(N)c(C)cc2c1)C(F)(F)F (stereo not drawn) [Example 611, 2-amino-3-methyl-N-(3,3,3-trifluoro-2-methoxypropyl)-N-((5-(trifluoromethyl)pyridin-2-yl)methyl)quinoline-6-carboxamide] | > 1000 | 70 | 3 to 7
Cc1ccc2c(c1)C(N(Cc1ccc(C(F)(F)F)cn1)C(=O)c1ccc3nc(N)c(C)cc3c1)CC2 (stereo not drawn) [Example 624, 2-amino-3-methyl-N-(6-methyl-2,3-dihydro-1H-inden-1-yl)-N-((5-(trifluoromethyl)pyridin-2-yl)methyl)quinoline-6-carboxamide] | > 1000 | 187 | 5.19
Cc1cc2cc(C(=O)N(Cc3ccc(C(F)(F)F)cn3)CC3CCc4[nH]cnc4C3)ccc2nc1N (stereo not drawn) [Example 617, 2-amino-3-methyl-N-((4,5,6,7-tetrahydro-1H-benzo[d]imidazol-5-yl)methyl)-N-((5-(trifluoromethyl)pyridin-2-yl)methyl)quinoline-6-carboxamide] | > 1000 | 286 | 1.72
Cc1cc2cc(C(=O)N(Cc3ccc(C(F)(F)F)cn3)C3CCCC3C#N)ccc2nc1N (stereo not drawn) [Example 699, 2-amino-N-(2-cyanocyclopentyl)-3-methyl-N-[[5-(trifluoromethyl)-2-pyridyl]methyl] quinoline-6-carboxamide] | > 1000 | 50 | 3.86
Cc1cc2cc(C(=O)N(Cc3ccc(N)nc3)Cc3ccc(C(F)(F)F)cn3)ccc2nc1N [Example 568, 2-amino-N-[(6-amino-3-pyridyl)methyl]-3-methyl-N-[[5-(trifluoromethyl)-2-pyridyl]methyl] quinoline-6-carboxamide] | 5550 | 130 | 2 to 3
